Measurements published in PubChem BioAssay (NCI).
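A five-concentration, 48-hour dose response in 96-well plates underlies each endpoint, interpolated linearly between surrounding concentrations. Here, GI50 denotes the concentration required for 50% inhibition of growth. TGI: total growth inhibition.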

How the values were obtained:
Assay in all cases: NCI anticancer screen, dose series, 48 h
786-0 renal = system: 786-0 renal
A498 renal = system: A498 renal
A549 NSCLC = system: A549 NSCLC
ACHN renal = system: ACHN renal
BT-549 breast = system: BT-549 breast
CAKI-1 renal = system: CAKI-1 renal
CCRF-CEM leukemia = system: CCRF-CEM leukemia
COLO 205 colon = system: COLO 205 colon
DU-145 prostate = system: DU-145 prostate
EKVX NSCLC = system: EKVX NSCLC
HCC-2998 colon = system: HCC-2998 colon
HCT-116 colon = system: HCT-116 colon
HCT-15 colon = system: HCT-15 colon
HL-60(TB) leukemia = system: HL-60(TB) leukemia
HOP-62 NSCLC = system: HOP-62 NSCLC
HOP-92 NSCLC = system: HOP-92 NSCLC
HS 578T breast = system: HS 578T breast
HT29 colon = system: HT29 colon
IGROV1 ovarian = system: IGROV1 ovarian
K-562 leukemia = system: K-562 leukemia
KM12 colon = system: KM12 colon
LOX IMVI melanoma = system: LOX IMVI melanoma
M14 melanoma = system: M14 melanoma
MALME-3M melanoma = system: MALME-3M melanoma
MCF7 breast = system: MCF7 breast
MDA-MB-231 breast = system: MDA-MB-231 breast
MDA-MB-435 = system: MDA-MB-435
MDA-MB-468 breast = system: MDA-MB-468 breast
MOLT-4 leukemia = system: MOLT-4 leukemia
NCI-H226 lung = system: NCI-H226 lung
NCI-H23 lung = system: NCI-H23 lung
NCI-H460 lung = system: NCI-H460 lung
NCI-H522 lung = system: NCI-H522 lung
NCI/ADR-RES ovarian = system: NCI/ADR-RES ovarian
OVCAR-3 ovarian = system: OVCAR-3 ovarian
OVCAR-4 ovarian = system: OVCAR-4 ovarian
OVCAR-5 ovarian = system: OVCAR-5 ovarian
OVCAR-8 ovarian = system: OVCAR-8 ovarian
PC-3 prostate = system: PC-3 prostate
RPMI-8226 leukemia = system: RPMI-8226 leukemia
RXF 393 renal = system: RXF 393 renal
SF-268 CNS = system: SF-268 CNS
SF-295 CNS = system: SF-295 CNS
SF-539 CNS = system: SF-539 CNS
SK-MEL-2 melanoma = system: SK-MEL-2 melanoma
SK-MEL-28 melanoma = system: SK-MEL-28 melanoma
SK-MEL-5 melanoma = system: SK-MEL-5 melanoma
SK-OV-3 ovarian = system: SK-OV-3 ovarian
SN12C renal = system: SN12C renal
SNB-19 CNS = system: SNB-19 CNS
SNB-75 CNS = system: SNB-75 CNS
SR leukemia = system: SR leukemia
SW-620 colon = system: SW-620 colon
T-47D breast = system: T-47D breast
TK-10 renal = system: TK-10 renal
U251 CNS = system: U251 CNS
UACC-257 melanoma = system: UACC-257 melanoma
UACC-62 melanoma = system: UACC-62 melanoma
UO-31 renal = system: UO-31 renal

COc1cccc(-c2nn(-c3ccccc3)cc2-c2ccnc(NCCCNC(=O)Nc3ccc(F)cc3)c2)c1
GI50 (786-0 renal): 9.34 µM | TGI (786-0 renal): > 37 µM | GI50 (A498 renal): 7.37 µM | TGI (A498 renal): 31.4 µM | GI50 (A549 NSCLC): 9.95 µM | TGI (A549 NSCLC): > 37 µM | GI50 (ACHN renal): 10.6 µM | TGI (ACHN renal): > 37 µM | GI50 (BT-549 breast): 6.24 µM | TGI (BT-549 breast): 20.3 µM | GI50 (CAKI-1 renal): 8.63 µM | TGI (CAKI-1 renal): > 37 µM | GI50 (CCRF-CEM leukemia): 8.53 µM | TGI (CCRF-CEM leukemia): 31.5 µM | GI50 (COLO 205 colon): 8.17 µM | TGI (COLO 205 colon): 29.3 µM | GI50 (DU-145 prostate): 14 µM | TGI (DU-145 prostate): > 37 µM | GI50 (EKVX NSCLC): 9.63 µM | TGI (EKVX NSCLC): > 37 µM | GI50 (HCC-2998 colon): 7.38 µM | TGI (HCC-2998 colon): 20 µM | GI50 (HCT-116 colon): 5.7 µM | TGI (HCT-116 colon): 17 µM | GI50 (HCT-15 colon): 7.64 µM | TGI (HCT-15 colon): > 37 µM | GI50 (HL-60(TB) leukemia): 3.77 µM | TGI (HL-60(TB) leukemia): 13.7 µM | GI50 (HOP-62 NSCLC): 14.7 µM | TGI (HOP-62 NSCLC): > 37 µM | GI50 (HOP-92 NSCLC): 6.25 µM | TGI (HOP-92 NSCLC): 31.1 µM | GI50 (HS 578T breast): 6.24 µM | TGI (HS 578T breast): 17.9 µM | GI50 (HT29 colon): 7.17 µM | TGI (HT29 colon): 18.2 µM | GI50 (IGROV1 ovarian): 9.34 µM | TGI (IGROV1 ovarian): > 37 µM | GI50 (K-562 leukemia): 2.96 µM | TGI (K-562 leukemia): > 37 µM | GI50 (KM12 colon): 10.5 µM | TGI (KM12 colon): > 37 µM | GI50 (LOX IMVI melanoma): 5.86 µM | TGI (LOX IMVI melanoma): 12 µM | GI50 (M14 melanoma): 6.71 µM | TGI (M14 melanoma): 19 µM | GI50 (MALME-3M melanoma): 5.45 µM | TGI (MALME-3M melanoma): 10.6 µM | GI50 (MCF7 breast): 7.17 µM | TGI (MCF7 breast): 18 µM | GI50 (MDA-MB-231 breast): 7.84 µM | TGI (MDA-MB-231 breast): 23 µM | GI50 (MDA-MB-435): 5.61 µM | TGI (MDA-MB-435): 12.8 µM | GI50 (MDA-MB-468 breast): 4.83 µM | TGI (MDA-MB-468 breast): 13 µM | GI50 (MOLT-4 leukemia): 3.94 µM | TGI (MOLT-4 leukemia): 19 µM | GI50 (NCI-H226 lung): 10.8 µM | TGI (NCI-H226 lung): > 37 µM | GI50 (NCI-H23 lung): 10.1 µM | TGI (NCI-H23 lung): > 37 µM | GI50 (NCI-H460 lung): 6.54 µM | TGI (NCI-H460 lung): 17.1 µM | GI50 (NCI-H522 lung): 5.07 µM | TGI (NCI-H522 lung): 12 µM | GI50 (NCI/ADR-RES ovarian): 7.29 µM | TGI (NCI/ADR-RES ovarian): 25.4 µM | GI50 (OVCAR-3 ovarian): 6.18 µM | TGI (OVCAR-3 ovarian): > 37 µM | GI50 (OVCAR-4 ovarian): 10.5 µM | TGI (OVCAR-4 ovarian): > 37 µM | GI50 (OVCAR-5 ovarian): 11.2 µM | TGI (OVCAR-5 ovarian): > 37 µM | GI50 (OVCAR-8 ovarian): 10.6 µM | TGI (OVCAR-8 ovarian): > 37 µM | GI50 (PC-3 prostate): 6.23 µM | TGI (PC-3 prostate): > 37 µM | GI50 (RPMI-8226 leukemia): 5.96 µM | TGI (RPMI-8226 leukemia): 24.6 µM | GI50 (RXF 393 renal): 6.01 µM | TGI (RXF 393 renal): 28.6 µM | GI50 (SF-268 CNS): 7.08 µM | TGI (SF-268 CNS): 30 µM | GI50 (SF-295 CNS): 7.16 µM | TGI (SF-295 CNS): 21.7 µM | GI50 (SF-539 CNS): 6.34 µM | TGI (SF-539 CNS): 13.4 µM | GI50 (SK-MEL-2 melanoma): 6.3 µM | TGI (SK-MEL-2 melanoma): 12.6 µM | GI50 (SK-MEL-28 melanoma): 6.57 µM | TGI (SK-MEL-28 melanoma): 15.5 µM | GI50 (SK-MEL-5 melanoma): 5.64 µM | TGI (SK-MEL-5 melanoma): 10.8 µM | GI50 (SK-OV-3 ovarian): 10.8 µM | TGI (SK-OV-3 ovarian): > 37 µM | GI50 (SN12C renal): 9.83 µM | TGI (SN12C renal): > 37 µM | GI50 (SNB-19 CNS): 12.1 µM | TGI (SNB-19 CNS): > 37 µM | GI50 (SNB-75 CNS): 4.18 µM | TGI (SNB-75 CNS): 22.7 µM | GI50 (SR leukemia): 7.7 µM | TGI (SR leukemia): > 37 µM | GI50 (SW-620 colon): 8.02 µM | TGI (SW-620 colon): > 37 µM | GI50 (T-47D breast): 7.95 µM | TGI (T-47D breast): > 37 µM | GI50 (TK-10 renal): 21.2 µM | TGI (TK-10 renal): > 37 µM | GI50 (U251 CNS): 9.84 µM | TGI (U251 CNS): > 37 µM | GI50 (UACC-257 melanoma): 7.05 µM | TGI (UACC-257 melanoma): 16.9 µM | GI50 (UACC-62 melanoma): 7.57 µM | TGI (UACC-62 melanoma): 24.2 µM | GI50 (UO-31 renal): 5.1 µM | TGI (UO-31 renal): > 37 µM
